Legend:
JNK1 = JNK1 (Homo sapiens, UniProt P45983); test: Biochemical JNK1 kinase inhibition (Z'-lyte format); details: Table 2
JNK2 = JNK2 (Homo sapiens, UniProt P45984); test: Biochemical JNK2 kinase inhibition (Z'-lyte format); details: Table 2
JNK3 = JNK3 (Homo sapiens, UniProt P53779); test: Biochemical JNK3 kinase inhibition (Z'-lyte format); details: Table 2
c-Jun phosphorylation [1] = test: LanthaScreen TR-FRET cell assay for c-Jun phosphorylation in HeLa cells; type: cell-based; details: Homo sapiens; for IC50: HeLa cells, rounded values of the text, read-out: IC50 for inhibiting c-Jun phosphorylation in HeLa cells; for EC50: Hela cells, TNF-α stimulation, read-out: p-c-Jun EC50 (nM) Hela
Description: Phosphorylation was determined by measuring the time resolved FRET (TR-FRET) between a terbium labeled phospho-c-Jun specific antibody and GFP. The cells were plated in white tissue culture treated 384 well plates at a density of 10,000 cell per well in 32 μL assay medium (Opti-MEM®, supplemented with 0.5% charcoal/dextran-treated FBS, 100 U/ml penicillin and 100 μg/ml streptomycin, 0.1 mM nonessential amino acids, 1 mM sodium pyruvate, 25 mM Hepes, pH 7.3, and lacking phenol red). After overnight incubation, cells were pretreated for 90 minutes with compound (at indicated concentration) diluted in 4 μL assay buffer followed by 30 min of stimulation with 5 ng/ml of TNF-α in 4 μL assay buffer (final assay volume was 40 μl). The medium was then removed by aspiration, and the cells were lysed by adding 20 μl of lysis buffer (20 mM Tris-HCl, pH 7.6, 5 mM EDTA, 1% Nonidet P-40 substitute, 5 mM NaF, 150 mM NaCl, and 1:100 protease and phosphatase inhibitor mix, SIGMA P8340 and P2850, respectively). The lysis buffer included 2 nM of the terbium-labeled anti-c-Jun (pSer73) detection antibodies (Life Technologies). After allowing the assay to equilibrate for 60 minutes at room temperature, TR-FRET emission ratios were determined on a BMG Pherastar fluorescence plate reader (BMG Labtech, Cary, N.C.) using the following parameters: excitation at 340 nm; emission at 520 nm and 490 nm; 100 μs lag time; 200 μs integration time; and emission ratio=Em520/Em490. All data were analyzed and plotted using Graphpad Prism 4.
(§1) In parallel with biochemical evaluation, the ability of the compounds to inhibit JNK activity in cells was investigated using two independent assays formats. This is a critical issue because there are several reported JNK inhibitors with nanomolar biochemical potency that translate into micromolar cellular inhibitors. The most well characterized direct phosphorylation substrate of JNK is the transcription factor c-Jun.

c-Jun phosphorylation [2] = test: High throughput microscopy of c-Jun phosphorylation in A375 cells; type: cell-based; details: Homo sapiens, A-375; for IC50: rounded values of the text, read-out: IC50 for inhibiting c-Jun phosphorylation in A375 cells
Description: Cells were fixed in 2% paraformaldehyde for 10 min at room temperature and washed with PBS-T (Phosphate Buffered Saline, 0.1% Tween 20). Cells were permeabilized in methanol for 10 min at room temperature, washed with PBS-T, and blocked in Odyssey Blocking Buffer (LI-COR Biosciences) for 1 hour at room temperature. Cells were incubated overnight at 4° C. with antibody specific for Erk1/2(pT202/pY204), Akt(pS473), c-Jun(pS73), pP38(T180/Y182) and pSTAT3(Y705) (Cell Signaling Technology), pRSK1(S380) and pMSK1(S376) (Epitomics), and NF-κB (Santa Cruz Biotechnology) diluted 1:400 in Odyssey Blocking Buffer. […] Cells were washed twice with PBS and imaged in an imageWoRx high-throughput microscope (Applied Precision). Data were plotted using DataPflex.
as §1

JNK = test: Binding kinetics (pulse-chase) assay, ATP-biotin labeling of JNK in A375 cells; type: cell-based; details: 1 μM compound
Description: A375 cells were incubated with inhibitors for the indicated amount of time after which cell lysates were prepared and labeled with ATP-biotin. Biotinylated proteins were pulled down with streptavidin beads and material bound to the beads was eluted and separate by SDS-PAGE followed by Western blot analysis for JNK.
A375 cells (ATCC® CRL-1619™) were pre-treated with 1 μM compound for the indicated amounts of time. Remove the medium and wash 3 times with PBS. Resuspend the cell pellet with 1 mL Lysis Buffer (1% NP-40, 1% CHAPS, 25 mM Tris, 150 mM NaCl, Phosphatase Inhibitor Cocktail, Roche 04906845001, and Protease Inhibitor Cocktail Roche 11836170001). Rotate end-to-end for 30 min at 4° C. Lysates were cleared by centrifugation at 14000 rpm for 15 min in the Eppendorf. The cleared lysates gel filtered into Kinase Buffer (0.1% NP-40, 20 mM HEPES, 150 mM NaCl, Phosphatase Inhibitor Cocktail, and Protease Inhibitor Cocktail) using Bio-Rad 10DG colums. The total protein concentration of the gel-filtered lysate should be around 5-15 mg/ml. […]
In order to evaluate the kinetics with which JNK-IN-5 could covalently modify JNK in cells, a pulse-chase assay was developed . […] Streptavidin affinity chromatography is then used to isolate all biotinylated proteins and JNK protein is detected following SDS-PAGE and Western blotting (FIG. 8). […]

[3] = test system: NF-kB nuclear translocation; test: High-throughput microscopy, NF-kB nuclear translocation; type: cell-based; details: Homo sapiens, A-375, A375 cells, TNF-α stimulation, read-out: Cellular EC50 NF-kB
Description: (§2) A375 cells were stimulated with anisomycin (FIGS. 14A and 14C to 14F), IGF-1 (FIG. 14B), IL-6 (FIG. 14G), and TNF-α (FIG. 14H) for sixty minutes. The output of multiple signaling pathways was measured using high throughput microscopy at multiple concentrations of four JNK inhibitors and a control compound specific to each pathway DMSO (FIG. 14A), MK2206 (allosteric Akt inhibitor, Haoyuan Chemexpress Co., Limited. Hirai, et al., 2010) (FIG. 14B), PD0325901 (allosteric Mek inhibitor, Haoyuan Chemexpress Co., Limited. Barrett, et al., 2008) (FIGS. 14C and 14D), SB239063 (ATP-competitive p38 inhibitor, Haoyuan Chemexpress Co., Limited. Underwood et al., 2000) (FIGS. 14E and 14F), KIN001-040 (ATP-competitive JAK1,2,3 inhibitor, Haoyuan Chemexpress Co., Limited. Thompson et al., 2002) (FIG. 14G), and KIN001-208 (IKK inhibitor VIII, Haoyuan Chemexpress Co., Limited., Murata, et al., 2004) (FIG. 14H).
(§3) Cells were plated at 7500 cells/well in 96-well microscopy plates (Corning) in recommended media for 24 hours, and then starved in media lacking serum for 16 hours. Cells were pre-treated for 180 minutes with 10-fold stock solutions of JNK inhibitors and for 10 min with control compounds MK2206, PD0325901, SB239063, KIN040, and KIN208 and treated with 10-fold stock solutions of IGF-1, IL-6, TNF-α (all PeproTech), or anisomycin for 60 minutes. Cells were fixed in 2% paraformaldehyde for 10 min at room temperature and washed with PBS-T (Phosphate Buffered Saline, 0.1% Tween 20). Cells were permeabilized in methanol for 10 min at room temperature, washed with PBS-T, and blocked in Odyssey Blocking Buffer (LI-COR Biosciences) for 1 hour at room temperature. Cells were incubated overnight at 4° C. with antibody specific for Erk1/2(pT202/pY204), Akt(pS473), c-Jun(pS73), pP38(T180/Y182) and pSTAT3(Y705) (Cell Signaling Technology), pRSK1(S380) and pMSK1(S376) (Epitomics), and NF-κB (Santa Cruz Biotechnology) diluted 1:400 in Odyssey Blocking Buffer. Cells were washed three times in PBS-T and incubated with rabbit-specific secondary antibody labeled with Alexa Fluor 647 (Invitrogen) diluted 1:2000 in Odyssey Blocking Buffer. Cells were washed once in PBS-T and once in PBS and incubated in 250 ng/ml Hoechst 33342 (Invitrogen) and 1:1000 Whole Cell Stain (blue; Thermo Scientific) solution. Cells were washed twice with PBS and imaged in an imageWoRx high-throughput microscope (Applied Precision). Data were plotted using DataPflex. […]

phosphorylation of Akt = test: High-throughput microscopy, phosphorylation of Akt; type: cell-based; details: Homo sapiens, A-375, A375 cells, IGF-1 stimulation, read-out: Cellular EC50 pAkt
Description: as §2, §3

phosphorylation of Erk = test: High-throughput microscopy, phosphorylation of Erk; type: cell-based; details: Homo sapiens, A-375, A375 cells, anisomycin stimulation, read-out: Cellular EC50 pErk
Description: as §2, §3

phosphorylation of p38 = test: High-throughput microscopy, phosphorylation of p38; type: cell-based; details: Homo sapiens, A-375, A375 cells, anisomycin stimulation, read-out: Cellular EC50 pP38
Description: as §2, §3

phosphorylation of RSK = test: High-throughput microscopy, phosphorylation of RSK; type: cell-based; details: Homo sapiens, A-375, A375 cells, anisomycin stimulation, read-out: Cellular EC50 pRSK
Description: as §2, §3

phosphorylation of STAT3 = test: High-throughput microscopy, phosphorylation of STAT3; type: cell-based; details: Homo sapiens, A-375, A375 cells, IL-6 stimulation, read-out: Cellular EC50 pSTAT3
Description: as §2, §3

[4] = A375 cells, anisomycin stimulation, read-out: p-c-Jun EC50 (nM) A375
[5] = Table 5, A375, read-out: E50/A375

Chain of JNK3 (P53779 whole entry): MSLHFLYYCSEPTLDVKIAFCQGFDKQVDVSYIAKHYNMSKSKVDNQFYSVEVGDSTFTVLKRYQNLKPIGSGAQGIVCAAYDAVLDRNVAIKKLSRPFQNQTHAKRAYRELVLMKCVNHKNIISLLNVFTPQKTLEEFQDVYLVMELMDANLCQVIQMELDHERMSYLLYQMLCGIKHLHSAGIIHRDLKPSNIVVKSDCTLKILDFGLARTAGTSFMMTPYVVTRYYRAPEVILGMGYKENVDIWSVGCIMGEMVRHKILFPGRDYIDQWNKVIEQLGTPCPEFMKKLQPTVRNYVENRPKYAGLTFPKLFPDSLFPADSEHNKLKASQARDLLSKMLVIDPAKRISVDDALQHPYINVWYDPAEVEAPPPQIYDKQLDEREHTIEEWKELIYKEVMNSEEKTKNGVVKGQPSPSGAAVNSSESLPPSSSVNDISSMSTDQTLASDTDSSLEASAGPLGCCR
Chain of JNK1 (P45983 whole entry): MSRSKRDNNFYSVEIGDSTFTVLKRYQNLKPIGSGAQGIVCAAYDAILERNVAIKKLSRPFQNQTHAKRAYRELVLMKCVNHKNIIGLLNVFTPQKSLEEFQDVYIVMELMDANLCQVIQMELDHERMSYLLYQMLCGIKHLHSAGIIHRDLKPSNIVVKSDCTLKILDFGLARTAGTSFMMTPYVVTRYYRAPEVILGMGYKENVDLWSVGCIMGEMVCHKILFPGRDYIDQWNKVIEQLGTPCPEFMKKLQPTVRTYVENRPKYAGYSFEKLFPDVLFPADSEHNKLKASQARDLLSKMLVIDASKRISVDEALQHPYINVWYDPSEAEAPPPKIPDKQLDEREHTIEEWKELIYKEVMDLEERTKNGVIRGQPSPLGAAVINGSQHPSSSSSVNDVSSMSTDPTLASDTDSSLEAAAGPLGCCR
Chain of JNK2 (P45984 whole entry): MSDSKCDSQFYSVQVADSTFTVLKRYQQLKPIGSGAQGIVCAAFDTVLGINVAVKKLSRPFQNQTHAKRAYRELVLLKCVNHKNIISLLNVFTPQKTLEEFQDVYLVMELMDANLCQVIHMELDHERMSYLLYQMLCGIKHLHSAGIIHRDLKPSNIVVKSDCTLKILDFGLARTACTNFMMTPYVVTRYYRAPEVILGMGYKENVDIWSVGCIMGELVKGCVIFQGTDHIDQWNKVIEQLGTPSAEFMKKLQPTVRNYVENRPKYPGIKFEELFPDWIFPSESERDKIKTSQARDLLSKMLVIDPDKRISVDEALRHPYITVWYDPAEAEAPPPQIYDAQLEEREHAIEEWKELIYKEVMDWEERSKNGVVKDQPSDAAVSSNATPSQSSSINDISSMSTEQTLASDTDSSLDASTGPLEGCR

Row | Structure (SMILES) | IC50 (JNK3) | EC50 (c-Jun phosphorylation [1]) | EC50 (c-Jun phosphorylation [2]; [4]) | EC50 (c-Jun phosphorylation [2]; [5]) | other results
1 | C=CC(=O)Nc1cccc(C(=O)Nc2ccc(Nc3nccc(-c4cccnc4)n3)cc2)c1 [JNK-IN-5] | 0.96 nM | 118 nM | 32 nM | 32 nM | IC50 (JNK1): 2.11 nM; IC50 (JNK2): 1.93 nM; IC50 (c-Jun phosphorylation [1]): ~100 nM; IC50 (c-Jun phosphorylation [2]; A375 cells): ~30 nM; incubation time to fully protect JNK from labeling by ATP-biotin (JNK): approximately three
2 | Cc1ccc(NC(=O)/C=C/CN(C)C)cc1C(=O)Nc1ccc(Nc2nccc(-c3cccnc3)n2)cc1 [JNK-IN-9] | 0.5 nM | 104 nM | 117 nM |  | 
3 | Cc1ccc(C(=O)Nc2ccc(Nc3nccc(-c4cccnc4)n3)cc2)cc1NC(=O)/C=C/CN(C)C [JNK-IN-10] | 0.5 nM | 173 nM | 141 nM |  | 
4 | CN(C)C/C=C/C(=O)Nc1cccc(C(=O)Nc2ccc(Nc3nccc(-c4c(-c5ccccc5)nn5ccccc45)n3)cc2)c1 [JNK-IN-11] | 0.5 nM | 48 nM | 8.6 nM |  | IC50 (JNK1): 1.34 nM; IC50 (JNK2): 0.5 nM; IC50 (c-Jun phosphorylation [1]): ~30 nM; EC50 (c-Jun phosphorylation [2]; A375 cells, anisomycin stimulation, high-throughput microscopy, Table 4, read-out: Cellular EC50 pc-Jun): < 10 nM; IC50 (c-Jun phosphorylation [2]; A375 cells): ~10 nM; EC50 [3]: > 10000 nM; EC50 (phosphorylation of Akt): > 10000 nM; EC50 (phosphorylation of Erk): 19 nM; EC50 (phosphorylation of p38): 15 nM; EC50 (phosphorylation of RSK): 20 nM; EC50 (phosphorylation of STAT3): > 10000 nM
5 | Oc1c2ccccc2c2c3c(cccc13)N=N2 [SP-600125, reference compound] |  | 7450 nM | 1980 nM |  | 
6 | C=CC(=O)Nc1ccc(C(=O)Nc2cccc(Nc3nccc(-c4cccnc4)n3)c2)cc1 [ZG-9] |  |  |  | 5460 nM | 
7 | CN(C)C/C=C/C(=O)Nc1ccc(C(=O)Nc2cccc(Nc3nccc(-c4cccnc4)n3)c2)cc1 [ZG-10] |  |  |  | 2400 nM | 

— patent US10144730B2, “Inhibitors of c-Jun-N-terminal kinase (JNK)” (Dana-Farber Cancer Institute, Inc., priority 2011, dated 2018)
